Assay results published in patent US9487479B2, “Small molecule inhibitors of N-terminus activation of the androgen receptor” (The University of British Columbia, priority 2008, dated 2016).

Legend:
LNCaP cells = test: Androgen-dependent proliferation of LNCaP cells (BrdU incorporation); format: cell-based, human; conditions: 5 μg/ml, 1 hr before R1881 0.1 nM, 3 days
Method: BrdU incorporation was measured 3 days later to indicate changes in proliferation in response to androgen (see FIG. 3B).

[1] = biological target: T1, progesterone receptor (PR) (Homo sapiens, UniProt P06401); test: PRE-luciferase reporter assay in LNCaP cells transfected with PRβ; format: cell-based; conditions: 5 μg/ml, progesterone 10 nM, 24 h
T1 construct: Cells were co-transfected with expression plasmids for full-length hGR and PRβ; expressed in transfected cells; host or cells: LNCaP cells
T1 sequence (P06401 1-933): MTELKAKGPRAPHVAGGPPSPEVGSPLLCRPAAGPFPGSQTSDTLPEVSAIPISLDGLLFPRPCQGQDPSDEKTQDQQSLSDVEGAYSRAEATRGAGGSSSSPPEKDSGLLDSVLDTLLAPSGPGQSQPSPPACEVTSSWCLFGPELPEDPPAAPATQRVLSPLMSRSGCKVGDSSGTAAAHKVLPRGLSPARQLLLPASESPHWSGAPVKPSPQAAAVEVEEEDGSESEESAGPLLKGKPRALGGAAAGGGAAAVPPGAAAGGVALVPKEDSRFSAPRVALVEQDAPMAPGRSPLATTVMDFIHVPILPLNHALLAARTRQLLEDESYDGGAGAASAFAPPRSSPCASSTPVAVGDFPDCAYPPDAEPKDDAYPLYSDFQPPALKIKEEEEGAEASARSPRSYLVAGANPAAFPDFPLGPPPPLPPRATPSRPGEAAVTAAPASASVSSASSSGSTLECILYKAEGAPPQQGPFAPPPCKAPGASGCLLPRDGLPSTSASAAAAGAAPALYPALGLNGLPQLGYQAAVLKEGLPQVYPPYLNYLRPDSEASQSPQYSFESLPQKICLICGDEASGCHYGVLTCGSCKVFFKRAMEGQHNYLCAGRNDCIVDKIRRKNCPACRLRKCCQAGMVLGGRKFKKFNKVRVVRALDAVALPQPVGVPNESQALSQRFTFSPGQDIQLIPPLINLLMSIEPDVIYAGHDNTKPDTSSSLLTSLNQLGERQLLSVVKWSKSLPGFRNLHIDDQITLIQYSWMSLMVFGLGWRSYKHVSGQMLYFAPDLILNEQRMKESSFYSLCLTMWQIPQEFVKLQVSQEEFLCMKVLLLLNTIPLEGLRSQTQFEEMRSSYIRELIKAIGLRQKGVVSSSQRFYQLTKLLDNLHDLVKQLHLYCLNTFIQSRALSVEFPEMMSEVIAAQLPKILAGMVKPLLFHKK
Text: White bars represent no steroid (ethanol control). Wherein glucocorticoid receptor (GR) and progesterone receptor (PR).
Sequence similarities of amino acids in the AR with related human steroid receptors (glucocorticoid receptor (GR) and progesterone receptor (PR)) are significant in some domains such as the DNA-binding-domain (DBD). Although the AR-NTD shares less than 15% homology with the PR and GR, these receptors do interact with some of the same proteins such as SRC-1 (steroid receptor coactivator-1). Therefore, reporter gene assays were used to determine if candidate compounds that block AR activity have any effect on GR and PR transcriptional activity. Cells were co-transfected with expression plasmids for full-length hGR and PRβ and the relative reporter (i.e., pGR-Luc or PRE-E1b-Luc reporters). Cells were then treated with ethanol vehicle, dexamethasone (GR), 4-pregnene-3,20 dione (progesterone) (PR) followed by measurement of luciferase activity.

LNCaP xenografts = test: LNCaP subcutaneous xenograft model in castrated NOD-SCID mice; format: in vivo; conditions: intratumoral 30 mg/kg every 3 days
Method: CB3.1 reduced the size of the tumors while DMSO-treated tumors continued to grow. Animals were castrated 7 days before 1st injection and tumor volume was set to 100%. Injections were made every 3 days at a dose of 30 mg/kg body weight every 3 days. B. Photograph is of a representative harvested LNCaP xenograft treated with CB3.1. The black bar represents 10 mm.
Six to eight-week old male athymic SCID mice were inoculated subcutaneously in the flank region via a 27-gauge needle with a 150 μl suspension of LNCaP or PC3 human prostate cancer cells (1×10^6 cells). The inoculations took place while the animal was under isofluorane anaesthesia. The tumor take rate is approximately 75%. Mice bearing tumors of 100 mm^3 were randomly assigned to treatment groups. Castration was performed as described below. Tumor volume (formula: L×W×H×0.5236) was measured in mice bearing LNCaP subcutaneous tumors that became palpable or visible and at least 40 mm^3. The animals were monitored daily and tumors were measured every 5 days.
Androgen withdrawal was completed by castration. Under isoflurane anaesthesia, a 5 mm vertical incision was used to gently withdraw the epididymal fat pad, to which the testis were attached, and to remove the testis from body. The cord connecting the testis to the blood supply was ligated with a suture, then cut. The cord was then returned to the abdominal cavity. Surgical suture was used to close the incision. To relieve pain, buprenorphine (0.05 mg/kg) was injected prior to surgery.
The subcutaneous xenograft model was used to test whether sintokamides that inhibit activation of the androgen receptor in vitro have any effect on these tumors. CB3.1 was tested in vivo using the LNCaP subcutaneous xenograft model. […] LNCaP human prostate cancer cells express endogenous androgen receptor (AR) and prostate-specific antigen (PSA), and progress to androgen independence in castrated hosts. LNCaP cells (10^6/ml) were implanted subcutaneously into NOD-SCID male mice that were at least 8 weeks in age. […]

CCC(=O)N[C@H](C[C@H](C)C(Cl)(Cl)Cl)C(=O)N1C(=O)C=C(OC)[C@@H]1C[C@H](C)C(Cl)Cl [CB3.1, Sintokamide A]
androgen-induced proliferation (BrdU incorporation) (LNCaP cells): reduced proliferation
PRE-luciferase activity in response to ligand [1]: did not inhibit
tumor volume relative to the tumor volume on the day of the 1st injection (LNCaP xenografts; 15 days after first injection, castrated mice): 111.81%±38.12
serum PSA (LNCaP xenografts; day 15 after the 1st injection): 98.47%±170.51
effect on tumor volume (LNCaP xenografts; castrated mice): showed a reduction of tumor volume
